ChEMBL document CHEMBL5346927, “Discovery of a novel 1H-pyrazole- [3,4-b] pyridine-based lysine demethylase 5B inhibitor with potential anti-prostate cancer activity that perturbs the phosphoinositide 3-kinase/AKT pathway” (Eur J Med Chem, 2023)
pIC50: −log10 of the molar value. Active and inactive are the calls of the source. The rule behind the calls is not given here.

What was measured:
MCF7 = test: Antitumor activity against human MCF7 cells assessed as inhibition of cell proliferation incubated for 72 hrs by MTT assay; assay type: functional, cell-based; settings: MCF7, 72 h
PC-3 [1] = test: Antitumor activity against human PC-3 cells assessed as inhibition of cell proliferation incubated for 72 hrs by MTT assay; assay type: functional, cell-based; settings: PC-3, 72 h
MGC-803 = test: Antitumor activity against human MGC-803 cells assessed as inhibition of cell proliferation incubated for 72 hrs by MTT assay; assay type: functional, cell-based; settings: MGC-803, 72 h
HepG2 = test: Antitumor activity against human HepG2 cells assessed as inhibition of cell proliferation incubated for 72 hrs by MTT assay; assay type: functional, cell-based; settings: HepG2, 72 h
[2] = Toxicity in BALB/C nude mouse xenografted with human PC-3 cells assessed as irregular fissures at 25 mg/kg, IG administered for 25 days by H&E staining based analysis; assay type: organism-based; settings: in vivo, po, 600 h, time 25 day
[3] = Toxicity in BALB/C nude mouse xenografted with human PC-3 cells assessed as indistinct prostate tube wall at 25 mg/kg, IG administered for 25 days by H&E staining based analysis; assay type: organism-based; settings: in vivo, po, 600 h, time 25 day
[4] = Toxicity in BALB/C nude mouse xenografted with human PC-3 cells assessed as heart damage at 25 mg/kg, IG administered for 25 days by H&E staining based analysis; assay type: organism-based; settings: in vivo, po, 600 h, time 25 day
[5] = Toxicity in BALB/C nude mouse xenografted with human PC-3 cells assessed as spleen damage at 25 mg/kg, IG administered for 25 days by H&E staining based analysis; assay type: organism-based; settings: in vivo, po, 600 h, time 25 day
PC-3 [6] = test: Antitumor activity against human PC-3 cells xenografted in BALB/C nude mice assessed as decrease in tumor volume at 25 to 50 mg/kg, IG administered for 25 days; assay type: functional, organism-based; settings: dose 25-50 mg/kg, time 25.0 day
[7] = Toxicity in BALB/C nude mouse xenografted with human PC-3 cells assessed as liver damage at 25 mg/kg, IG administered for 25 days by H&E staining based analysis; assay type: organism-based; settings: in vivo, po, 600 h, time 25 day
[8] = Toxicity in BALB/C nude mouse xenografted with human PC-3 cells assessed as decrease in cell density at 25 mg/kg, IG administered for 25 days by H&E staining based analysis; assay type: organism-based; settings: in vivo, po, 600 h, time 25 day
PC-3 [9] = test: Antitumor activity against human PC-3 cells xenografted in BALB/C nude mice assessed as decrease in tumor weight at 25 mg/kg, IG administered for 25 days; assay type: functional, organism-based; settings: time 25.0 day
[10] = Toxicity in BALB/C nude mouse xenografted with human PC-3 cells assessed as reduction in prostate gland cells at 25 mg/kg, IG administered for 25 days by H&E staining based analysis; assay type: organism-based; settings: in vivo, po, 600 h, time 25 day
[11] = Toxicity in BALB/C nude mouse xenografted with human PC-3 cells assessed as effect on body weight at 25 mg/kg, IG administered for 25 days; assay type: organism-based; settings: in vivo, po, 600 h, time 25 day
LNCaP = test: Antiproliferative activity against human LNCaP cells assessed as inhibition of cell proliferation incubated for 72 hrs by MTT assay; assay type: functional, cell-based
DU-145 = test: Antiproliferative activity against human DU-145 cells assessed as inhibition of cell proliferation incubated for 72 hrs by MTT assay; assay type: functional, cell-based; settings: DU-145, 72 h
[12] = target: Lysine-specific histone demethylase 1A (Homo sapiens) (UniProt O60341); test: Inhibition of LSD1 (unknown origin) at 10 uM relative to control
[13] = target: S-phase kinase-associated protein 2 (Homo sapiens) (UniProt Q13309); test: Inhibition of SKP2 (unknown origin) at 10 uM relative to control
[14] = target: T1, Protein deacetylase HDAC6 (Homo sapiens) (UniProt Q9UBN7); test: Inhibition of HDAC6 (unknown origin) at 10 uM relative to control
T1 sequence (whole entry): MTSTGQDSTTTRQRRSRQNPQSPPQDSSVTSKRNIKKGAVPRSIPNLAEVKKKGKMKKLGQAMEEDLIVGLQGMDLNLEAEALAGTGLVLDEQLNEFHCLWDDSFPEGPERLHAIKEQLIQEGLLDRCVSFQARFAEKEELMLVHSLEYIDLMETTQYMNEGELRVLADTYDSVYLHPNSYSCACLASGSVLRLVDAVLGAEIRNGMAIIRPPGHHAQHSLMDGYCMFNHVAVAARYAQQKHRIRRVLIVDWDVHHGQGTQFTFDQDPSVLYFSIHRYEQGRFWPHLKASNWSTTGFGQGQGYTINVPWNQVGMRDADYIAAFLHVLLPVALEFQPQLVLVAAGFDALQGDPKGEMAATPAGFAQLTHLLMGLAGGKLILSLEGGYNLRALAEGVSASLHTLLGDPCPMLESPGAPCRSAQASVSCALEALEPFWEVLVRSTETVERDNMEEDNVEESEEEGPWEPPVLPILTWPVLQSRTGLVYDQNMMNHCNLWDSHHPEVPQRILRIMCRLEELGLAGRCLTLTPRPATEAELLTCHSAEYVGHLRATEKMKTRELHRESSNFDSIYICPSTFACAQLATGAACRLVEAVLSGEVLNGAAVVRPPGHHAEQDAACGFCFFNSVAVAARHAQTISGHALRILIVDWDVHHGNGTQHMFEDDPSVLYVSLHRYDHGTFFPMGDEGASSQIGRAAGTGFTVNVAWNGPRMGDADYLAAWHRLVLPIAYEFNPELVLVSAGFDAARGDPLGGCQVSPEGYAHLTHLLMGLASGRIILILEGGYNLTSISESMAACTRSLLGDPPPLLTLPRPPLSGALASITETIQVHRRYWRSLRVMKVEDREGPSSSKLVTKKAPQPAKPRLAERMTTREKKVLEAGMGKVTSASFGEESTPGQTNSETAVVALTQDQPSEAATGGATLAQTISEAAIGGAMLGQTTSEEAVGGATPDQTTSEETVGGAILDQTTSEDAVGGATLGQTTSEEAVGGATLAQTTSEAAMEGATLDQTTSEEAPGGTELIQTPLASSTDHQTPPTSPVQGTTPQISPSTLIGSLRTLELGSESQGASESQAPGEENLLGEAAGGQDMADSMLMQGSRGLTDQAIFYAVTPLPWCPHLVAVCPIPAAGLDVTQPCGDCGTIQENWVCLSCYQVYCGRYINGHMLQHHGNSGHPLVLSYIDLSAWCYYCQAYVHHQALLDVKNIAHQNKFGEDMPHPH

[15] = target: Bromodomain-containing protein 4 (Homo sapiens) (UniProt O60885); test: Inhibition of BRD4 (unknown origin) at 10 uM relative to control
[16] = target: T2, Lysine-specific demethylase 5B (Homo sapiens, UniProt Q9UGL1); test: Inhibition of KDM5B (unknown origin) at 10 uM relative to control
[17] = target: Ubiquitin carboxyl-terminal hydrolase 7 (Homo sapiens) (UniProt Q93009); test: Inhibition of USP7 (unknown origin) at 10 uM relative to control
[18] = target: T2, Lysine-specific demethylase 5B; test: Inhibition of KDM5B (unknown origin)
PC-3 [19] = test: Inhibition of PI3K/AKT pathway in human PC-3 cells assessed as decrease in P85 level at 20 uM by Western blot analysis; assay type: cell-based
PC-3 [20] = test: Inhibition of PI3K/AKT pathway in human PC-3 cells assessed as decrease in P110alpha level at 20 uM by Western blot analysis; assay type: cell-based
PC-3 [21] = test: Inhibition of PI3K/AKT pathway in human PC-3 cells assessed as decrease in AKT phosphorylation at Thr308 residue at 20 uM by Western blot analysis; assay type: cell-based
PC-3 [22] = test: Inhibition of PI3K/AKT pathway in human PC-3 cells assessed as decrease in AKT phosphorylation at Ser473 residue at 20 uM by Western blot analysis; assay type: cell-based

T2 sequence (Q9UGL1 whole entry): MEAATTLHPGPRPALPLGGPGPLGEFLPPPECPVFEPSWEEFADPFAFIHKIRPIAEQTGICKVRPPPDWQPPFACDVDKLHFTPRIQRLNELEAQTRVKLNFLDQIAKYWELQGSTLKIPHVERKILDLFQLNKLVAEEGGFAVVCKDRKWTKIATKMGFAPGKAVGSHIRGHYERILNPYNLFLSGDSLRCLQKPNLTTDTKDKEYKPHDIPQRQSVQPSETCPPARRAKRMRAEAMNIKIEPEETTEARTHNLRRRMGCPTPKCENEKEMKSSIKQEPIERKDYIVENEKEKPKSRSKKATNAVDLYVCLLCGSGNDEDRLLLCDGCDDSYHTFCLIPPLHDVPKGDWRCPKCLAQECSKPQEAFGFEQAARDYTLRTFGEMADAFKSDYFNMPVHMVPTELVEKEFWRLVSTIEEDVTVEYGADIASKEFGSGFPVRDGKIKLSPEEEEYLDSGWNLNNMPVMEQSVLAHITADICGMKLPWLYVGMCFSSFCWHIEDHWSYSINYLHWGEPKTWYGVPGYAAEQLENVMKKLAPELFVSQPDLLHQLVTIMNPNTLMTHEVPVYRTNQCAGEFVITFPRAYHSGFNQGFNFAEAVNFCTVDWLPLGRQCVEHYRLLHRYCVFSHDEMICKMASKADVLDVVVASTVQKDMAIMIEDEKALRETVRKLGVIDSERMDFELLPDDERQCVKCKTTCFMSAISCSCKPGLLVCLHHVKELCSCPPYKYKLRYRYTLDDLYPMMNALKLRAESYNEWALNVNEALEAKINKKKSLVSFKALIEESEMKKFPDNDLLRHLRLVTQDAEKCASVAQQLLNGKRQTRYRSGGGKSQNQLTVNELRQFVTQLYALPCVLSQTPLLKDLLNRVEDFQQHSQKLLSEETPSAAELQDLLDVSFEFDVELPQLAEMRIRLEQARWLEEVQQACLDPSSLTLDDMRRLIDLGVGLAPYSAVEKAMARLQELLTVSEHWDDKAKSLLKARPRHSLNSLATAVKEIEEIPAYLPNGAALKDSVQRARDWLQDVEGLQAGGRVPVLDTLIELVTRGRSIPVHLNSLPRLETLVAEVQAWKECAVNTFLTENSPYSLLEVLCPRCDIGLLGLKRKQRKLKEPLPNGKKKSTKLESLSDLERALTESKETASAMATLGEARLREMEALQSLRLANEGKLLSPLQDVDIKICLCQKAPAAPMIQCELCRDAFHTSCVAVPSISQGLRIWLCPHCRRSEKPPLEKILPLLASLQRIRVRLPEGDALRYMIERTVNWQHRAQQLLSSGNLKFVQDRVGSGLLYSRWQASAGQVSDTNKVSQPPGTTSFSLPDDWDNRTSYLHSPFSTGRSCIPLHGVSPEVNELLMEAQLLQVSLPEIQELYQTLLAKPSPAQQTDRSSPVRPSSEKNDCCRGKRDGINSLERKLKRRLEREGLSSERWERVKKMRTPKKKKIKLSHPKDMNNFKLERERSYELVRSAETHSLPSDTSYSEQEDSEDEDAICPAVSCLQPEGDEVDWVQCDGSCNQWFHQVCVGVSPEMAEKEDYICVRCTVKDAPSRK
Ubiquitin carboxyl-terminal hydrolase 7 (Homo sapiens), sequence (Q93009 whole entry, looked up): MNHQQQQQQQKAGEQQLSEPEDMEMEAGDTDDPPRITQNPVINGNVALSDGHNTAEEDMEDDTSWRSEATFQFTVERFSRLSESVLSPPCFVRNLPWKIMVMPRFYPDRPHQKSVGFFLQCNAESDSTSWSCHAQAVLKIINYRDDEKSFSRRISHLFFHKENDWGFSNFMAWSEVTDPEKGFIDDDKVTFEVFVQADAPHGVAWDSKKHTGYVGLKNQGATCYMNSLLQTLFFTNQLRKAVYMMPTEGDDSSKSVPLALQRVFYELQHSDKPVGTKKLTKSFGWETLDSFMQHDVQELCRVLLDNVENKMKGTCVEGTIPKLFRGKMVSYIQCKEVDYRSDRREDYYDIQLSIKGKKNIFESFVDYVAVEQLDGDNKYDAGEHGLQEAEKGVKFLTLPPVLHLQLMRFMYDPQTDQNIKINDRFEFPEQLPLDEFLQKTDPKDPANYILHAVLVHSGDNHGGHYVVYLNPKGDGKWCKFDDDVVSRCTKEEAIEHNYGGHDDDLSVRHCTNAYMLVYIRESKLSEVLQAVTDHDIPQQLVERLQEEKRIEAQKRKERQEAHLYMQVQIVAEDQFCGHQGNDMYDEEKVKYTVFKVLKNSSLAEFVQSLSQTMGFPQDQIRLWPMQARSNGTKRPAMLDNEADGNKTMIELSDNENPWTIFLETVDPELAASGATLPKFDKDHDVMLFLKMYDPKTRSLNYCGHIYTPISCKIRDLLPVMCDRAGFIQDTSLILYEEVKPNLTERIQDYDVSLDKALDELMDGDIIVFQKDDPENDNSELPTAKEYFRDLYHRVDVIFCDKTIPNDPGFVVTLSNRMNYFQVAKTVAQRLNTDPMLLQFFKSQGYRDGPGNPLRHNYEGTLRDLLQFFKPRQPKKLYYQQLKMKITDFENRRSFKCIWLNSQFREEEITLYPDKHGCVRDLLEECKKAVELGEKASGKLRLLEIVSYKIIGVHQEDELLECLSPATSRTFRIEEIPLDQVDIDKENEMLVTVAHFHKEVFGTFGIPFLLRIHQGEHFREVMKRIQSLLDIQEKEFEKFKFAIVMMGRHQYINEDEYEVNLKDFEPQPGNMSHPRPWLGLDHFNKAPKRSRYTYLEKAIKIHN
S-phase kinase-associated protein 2 (Homo sapiens), sequence (Q13309 whole entry): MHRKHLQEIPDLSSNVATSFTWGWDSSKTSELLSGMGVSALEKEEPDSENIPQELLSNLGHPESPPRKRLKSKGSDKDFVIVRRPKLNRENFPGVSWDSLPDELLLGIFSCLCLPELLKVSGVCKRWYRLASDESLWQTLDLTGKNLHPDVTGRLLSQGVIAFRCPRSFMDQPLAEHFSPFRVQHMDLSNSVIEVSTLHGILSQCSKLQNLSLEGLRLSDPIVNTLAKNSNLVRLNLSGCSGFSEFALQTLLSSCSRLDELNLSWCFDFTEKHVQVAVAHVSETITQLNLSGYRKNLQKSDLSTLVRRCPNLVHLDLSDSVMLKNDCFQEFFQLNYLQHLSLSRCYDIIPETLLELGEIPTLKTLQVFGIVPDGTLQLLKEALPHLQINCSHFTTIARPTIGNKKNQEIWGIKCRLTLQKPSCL

O=C(O)CCNc1cc(N2CCc3ccccc3CC2)nc(-c2ccccn2)n1
pIC50 (MCF7): 4.47
pIC50 (PC-3 [1]): 4.69
pIC50 (MGC-803): 4.53
pIC50 (HepG2): 4.40

COc1cccc2c1C(=O)c1c(O)c3c(c(O)c1C2=O)C[C@@](O)(C(=O)CO)C[C@@H]3O[C@H]1C[C@H](N)[C@H](O)[C@H](C)O1 [DOXORUBICIN]
Activity [2]: Toxic
Activity [3]: Toxic
Activity [4]: Toxic
Activity [5]: Toxic
Activity (PC-3 [6]): Active
Activity [7]: Toxic
Activity [8]: Toxic
Activity (PC-3 [9]): Active
Activity [10]: Toxic
Activity [11]: Toxic

O=c1[nH]cc(F)c(=O)[nH]1 [FLUOROURACIL]
pIC50 (LNCaP): 5.10
pIC50 (MCF7): 4.82
pIC50 (PC-3 [1]): 5.08
pIC50 (MGC-803): 4.99
pIC50 (DU-145): 5.07

CC(C)n1ncc2c(C(=O)NCc3cn(Cc4ccccc4)nn3)cccc21
inhibition [12]: 31%
inhibition [13]: 11%
inhibition [14]: 27%
inhibition [15]: 9%
inhibition [16]: 56%
inhibition [17]: 16%

Cc1ccc(-n2ncc3c(C(=O)NCc4cn(Cc5ccc(C(F)(F)F)cc5)nn4)cc(-c4ccc5ccccc5c4)nc32)cc1
pIC50 [18]: 5.16
inhibition [16]: 58%

CCc1ccc(-c2cc(C(=O)NCCN3CCN(C)CC3)c3cnn(-c4ccccc4)c3n2)cc1
pIC50 [18]: 6.42
inhibition [16]: 83%

CC(C)c1c(-c2ccccc2)[nH]c2c(C#N)cnn2c1=O
pIC50 [18]: 7.96
pIC50 (LNCaP): 4.53
pIC50 (MCF7): 4.45
inhibition (PC-3 [19]): Active
pIC50 (PC-3 [1]): 4.57
pIC50 (MGC-803): 4.47
pIC50 (HepG2): 4.37
inhibition (PC-3 [20]): Active
pIC50 (DU-145): 4.44
inhibition (PC-3 [21]): Active
inhibition (PC-3 [22]): Active

CN1CCN(CCNC(=O)c2cc(-c3ccccc3)nc3c2cnn3-c2ccc(Cl)cc2)CC1
pIC50 [18]: < 5.00
inhibition [16]: 40%

Cc1ccc(-n2ncc3c(C(=O)NCc4cn(Cc5ccccc5)nn4)cc(-c4ccc5ccccc5c4)nc32)cc1
pIC50 [18]: 5.41
inhibition [16]: 72%

Cc1ccc(-n2ncc3c(C(=O)NCCN4CCCC4)cc(-c4ccc5ccccc5c4)nc32)cc1
pIC50 [18]: 5.13
inhibition [16]: 58%

Cc1ccc(-n2ncc3c(C(=O)NCc4cn(Cc5ccc(C#N)cc5)nn4)cc(-c4ccc5ccccc5c4)nc32)cc1
pIC50 [18]: 5.19
inhibition [16]: 63%

Cc1ccc(-c2cc(C(=O)NCCN3CCN(C)CC3)c3cnn(-c4ccccc4)c3n2)cc1
pIC50 [18]: 6.18
inhibition [16]: 79%

CN1CCN(CCNC(=O)c2cc(-c3ccc(Cl)cc3)nc3c2cnn3-c2ccccc2)CC1
pIC50 [18]: < 5.00
inhibition [16]: 43%

Cc1cccc(-n2ncc3c(C(=O)NCCN4CCN(C)CC4)cc(-c4ccc5ccccc5c4)nc32)c1
pIC50 [18]: 5.03
inhibition [16]: 53%

CN1CCN(CCNC(=O)c2cc(-c3ccc4ccccc4c3)nc3c2cnn3-c2ccc(Br)cc2)CC1
pIC50 [18]: < 5.00
inhibition [16]: 46%

Cc1ccc(-n2ncc3c(C(=O)NCc4cn(-c5cccc(Br)c5)nn4)cc(-c4ccc5ccccc5c4)nc32)cc1
pIC50 [18]: 5.02
inhibition [16]: 51%

Cc1ccc(-n2ncc3c(C(=O)NCc4ccccc4)cc(-c4ccc5ccccc5c4)nc32)cc1
pIC50 [18]: < 5.00
inhibition [16]: 27%

CN1CCN(CCNC(=O)c2cc(-c3ccccc3)nc3c2cnn3-c2ccc(Br)cc2)CC1
pIC50 [18]: < 5.00
inhibition [16]: 44%

Cc1ccc(-n2ncc3c(C(=O)NCCN4CCN(C)CC4)cc(-c4ccc5ccccc5c4)nc32)cc1
pIC50 [18]: 5.87
inhibition [16]: 79%

Cc1ccc(-n2ncc3c(C(=O)Nc4ccccc4)cc(-c4ccc5ccccc5c4)nc32)cc1
pIC50 [18]: < 5.00
inhibition [16]: -1%

Cc1ccc(-n2ncc3c(C(=O)NCc4cn(-c5ccc(C)cc5C)nn4)cc(-c4ccc5ccccc5c4)nc32)cc1
pIC50 [18]: < 5.00
inhibition [16]: 17%

CC(C)n1ncc2c(C(=O)NCc3cn(Cc4ccccc4)nn3)cc(-c3ccc4ccccc4c3)nc21
pIC50 [18]: 5.11
inhibition [16]: 57%

Cc1ccc(-n2ncc3c(C(=O)NCc4cn(-c5ccccc5)nn4)cc(-c4ccc5ccccc5c4)nc32)cc1
pIC50 [18]: 5.66
inhibition [16]: 74%

Cc1ccccc1-c1cc(C(=O)NCCN2CCN(C)CC2)c2cnn(-c3ccccc3)c2n1
pIC50 [18]: 5.21
inhibition [16]: 60%

CN1CCN(CCNC(=O)c2cc(-c3ccccc3)nc3c2cnn3-c2ccccc2)CC1
pIC50 [18]: 6.13
inhibition [16]: 93%
